Measured values reported in PMC9995496, “A screen for MeCP2-TBL1 interaction inhibitors using a luminescence-based assay” (Scientific Reports, 2023).
Where a name gives a salt, the structure may show the parent alone. Square brackets hold non-standard residues; d marks the D form. Peptide text beside a SMILES is read from it. * marks the point of attachment. ξ: configuration not given here. Sta = CC(C)C[C@H](N)[C@@H](O)CC(=O)O; Isovaleryl = CC(C)CC(=O)*; Cbz = O=C(OCc1ccccc1)*; ξL = CC(C)CC(N)C(=O)O; ξM = CSCCC(N)C(=O)O

system: PRKACA-PRKAR2A interaction (SmBiT-PRKACA / LgBiT-PRKAR2A), protein kinase A; design: NanoLuc complementation counter-screen in cell extract, PRKACA with PRKAR2A, loss of luminescence, detects NanoLuc interference; details: 0.5 h, 20 µM; inhibitor

With Cc1cc(N2CCN([C@@H]3CN[C@H](C(=O)N4CCSC4)C3)CC2)n(-c2ccccc2)n1 [UM0141637:01, Teneligliptin hydrobromide] the “Inh (PKA)” value was -1.766%.

same assay, conditions: counter-screen for NanoLuc interference, 0.5 h, 20 µM, inhibitor, Inh (PKA)

First: CCOC(=O)C1=C[C@@H](OC(CC)CC)[C@H](NC(C)=O)[C@@H](N)C1 [UM0141595:01, Oseltamivir]
Second: CNCc1ccc(-c2[nH]c3cc(F)cc4c3c2CCNC4=O)cc1 [UM0135471:02, Rucaparib (AG-014699,PF-01367338)]
The “Inh (PKA)” value of the first is lower: 0.436% for the first, 3.125% for the second.

CS(=O)(=O)N1CCN(Cc2cc3nc(-c4cccc5[nH]ncc45)nc(N4CCOCC4)c3s2)CC1 [UM0141556:01, GDC-0941 dimethanesulfonate] was tested, and the “Inh (PKA)” value was 7.081%.

same assay, conditions: counter-screen for NanoLuc interference; 0.5 h, 20 µM; inhibitor

First: CC(C)(C)NC(=O)[C@@H]1C[C@@H]2CCCC[C@@H]2CN1C[C@@H](O)[C@H](Cc1ccccc1)NC(=O)[C@H](CC(N)=O)NC(=O)c1ccc2ccccc2n1 [UM0141624:01, Saquinavir mesylate]
Second: COC(=O)C[C@H](NC(=O)[C@H](C)NC(=O)[C@@H](NC(=O)[C@H](Cc1ccc(O)cc1)NC(=O)OCc1ccccc1)C(C)C)C(=O)CF [UM0142151:01, Z-YVAD-FMK]
The “Inh (PKA)” value of the first is higher: 9.291% for the first, 2.926% for the second.

Compared with CC(C)[C@H](N)C(=O)N1CCC[C@H]1B(O)O [UM0142552:01, Talabostat mesylate], C[C@H](CS)C(=O)N1CCC[C@H]1C(=O)O [UM0118157:03, Captopril] is higher in “Inh (PKA)” value: -1.148% for the first, 5.226% for the second.

Compared with CN(C)c1cccc(-c2c3c(=O)n(-c4ccccc4Cl)[nH]c3cc(=O)n2C)c1 [UM0142578:01, GKT137831], CN(C)CC(=O)Nc1ccc2[nH]c(=O)c3ccccc3c2c1 [UM0141738:01, PJ34 hydrochloride] is lower in “Inh (PKA)” value: 41.79% for the first, 3.156% for the second.

First: Cc1ccc(-c2cc(C(F)(F)F)nn2-c2ccc(S(N)(=O)=O)cc2)cc1 [UM0121289:03, Celecoxib]
Second: CS(=O)(=O)c1ccc(C2=C(c3ccccc3)C(=O)OC2)cc1 [UM0133054:02, Rofecoxib]
The “Inh (PKA)” value of the first is higher: 16.21% for the first, 1.384% for the second.

Compared with CN(CC(=O)N(Cc1ccc(C2CCCCC2)cc1)c1ccc(C(=O)O)cc1)S(=O)(=O)c1c(F)c(F)c(F)c(F)c1F [UM0142580:01, SH-4-54], O=C(Oc1cc(S(=O)(=O)c2ccccc2)ccc1[N+](=O)[O-])c1ccc(Cl)cc1 [UM0041523:03, BTB06584] is higher in “Inh (PKA)” value: 8.361% for the first, 10.87% for the second.

First: CNC(=O)c1cccc(-c2ccc3c(N4CCOC[C@@H]4C)nc(N4CCOC[C@@H]4C)nc3n2)c1 [UM0142021:01, AZD2014]
Second: Cc1cccc(-c2nn3c(c2-c2ccnc4ccc(C(N)=O)cc24)CCC3)n1 [UM0142007:01, LY2157299]
The “Inh (PKA)” value of the first is higher: 7.565% for the first, 1.976% for the second.

Going from Cc1ccc2nc(CN(CCN(Cc3nc4ccc(C)cc4[nH]3)Cc3nc4ccc(C)cc4[nH]3)Cc3nc4ccc(C)cc4[nH]3)[nH]c2c1 [UM0142762:01, NSC348884] to COc1ccc(Cn2c3ncnc4c(ncn4Cc4ccc(OC)cc4)c-3nc2=O)cc1 [UM0142806:01, RK-33], the “Inh (PKA)” value rises from 3.32% to 7.723%.

Going from CCc1cncnc1N1CCN(Cc2nc3ccc(C(F)(F)F)cc3[nH]2)CC1 [UM0142456:01, PF-4708671] to Cc1cc(CN2CCN(c3c(Br)cnc4nc(-c5ccc(N6CCN(C)CC6)cc5)[nH]c34)CC2)no1 [UM0141727:01, CCT137690], the “Inh (PKA)” value rises from 34.33% to 46.74%.

First: CCOC(CN1CCN(CC(C)C(=O)c2ccccc2)CC1)c1ccccc1 (centres unmarked) [UM0142356:01, Eprazinone 2HCl]
Second: CC(C)[C@H](NC(=O)OCc1ccccc1)C(=O)N[C@H](C=O)Cc1ccccc1 [UM0141833:01, MDL 28170] (Cbz-Val-Phe-aldehyde)
The “Inh (PKA)” value of the first is higher: 5.222% for the first, 3.195% for the second.

Going from CC(C)CC(=O)N[C@H](C(=O)N[C@H](C(=O)N[C@@H](CC(C)C)[C@@H](O)CC(=O)N[C@@H](C)C(=O)N[C@@H](CC(C)C)[C@@H](O)CC(=O)O)C(C)C)C(C)C [UM0118622:03, Pepstatin A] (Isovaleryl-VV[Sta]A[Sta]-OH) to CSCCC(C=O)NC(=O)C(CC(C)C)NC(=O)[C@H](CC(C)C)NC(C)=O (some centres unmarked) [UM0141476:01, Calpain Inhibitor II, ALLM] (Ac-Leu-[ξL]-[ξM]-aldehyde), the “Inh (PKA)” value rises from 1.204% to 1.385%.

Going from N#Cc1cnc(Nc2cc(NC[C@H]3CNCCO3)c(C(F)(F)F)cn2)cn1 [UM0142825:01, CCT245737] to Cn1c(Nc2ccc(C(F)(F)F)cc2)nc2cc(Oc3ccnc(-c4ncc(C(F)(F)F)[nH]4)c3)ccc21 [UM0141982:01, RAF265], the “Inh (PKA)” value falls from 4.036% to 1.298%.

First: CN(C)CC/C=C1/c2ccccc2COc2ccc(CC(=O)O)cc21 [UM0142309:01, Olopatadine HCl]
Second: O=C(O)CNC(=O)c1c(O)c2ccccc2n(Cc2ccccc2)c1=O [UM0141753:01, IOX2(Glycine)]
The “Inh (PKA)” value of the first is lower: -1.243% for the first, 18.92% for the second.

Compared with C[C@H](NCc1ccc(OCc2cccc(F)c2)cc1)C(N)=O [UM0141812:01, Safinamide Mesylate], C=CC(=O)Nc1ccc2ncnc(Nc3ccc(OCc4cccc(F)c4)c(Cl)c3)c2c1 [UM0142018:01, AST-1306] is higher in “Inh (PKA)” value: 2.51% for the first, 12.53% for the second.

Going from O=S(=O)(c1cccc2cnccc12)N1CCCNCC1 [UM0141906:01, Fasudil (HA-1077) HCl] to CC(C)c1noc(N2CCC(COc3ccc(-c4ccc(S(C)(=O)=O)cc4)nc3)CC2)n1 [UM0142042:01, GSK1292263], the “Inh (PKA)” value falls from 33.96% to 2.417%.

First: CCCOc1ccccc1-c1nc2[nH]nnc2c(=O)[nH]1 [UM0142774:01, Zaprinast]
Second: CSc1nc2cc(Cl)c(Oc3cccc(Cl)c3Cl)cc2[nH]1 [UM0133345:02, Triclabendazole]
The “Inh (PKA)” value of the first is lower: 3.478% for the first, 37.19% for the second.

Compared with O=C1OC2(c3ccccc31)c1ccc(O)c(O)c1Oc1c2ccc(O)c1O [UM0142786:01, Gallein], O=C(O)c1cc(/N=N/c2ccc(S(=O)(=O)Nc3ccccn3)cc2)ccc1O [UM0141908:01, Sulfasalazine] is higher in “Inh (PKA)” value: 24.58% for the first, 56.84% for the second.

Compared with Cc1nc(-c2ccc(OCC(C)C)c(C#N)c2)sc1C(=O)O [UM0141917:01, Febuxostat], COc1c(C)c(C(=O)c2ccc(N)c(C(=O)O)c2)n2ccccc12 [UM0142292:01, SSR128129E] is higher in “Inh (PKA)” value: 17.81% for the first, 31.08% for the second.

First: O=C1Nc2ccc(I)cc2/C1=C/c1cc(Br)c(O)c(Br)c1 [UM0142240:01, GW5074]
Second: O=C(NOCC(O)CO)c1cc(Br)c(F)c(F)c1Nc1ccc(I)cc1F (centres unmarked) [UM0141903:01, PD318088]
The “Inh (PKA)” value of the first is higher: 70.55% for the first, 48.65% for the second.

Compared with O=C(N/N=C/c1ccc([N+](=O)[O-])o1)c1ccc(O)cc1 [UM0133346:02, Nifuroxazide], O=C(/C=C/c1ccc(O)c(O)c1)c1ccc(O)cc1O [UM0133869:02, Butein] is higher in “Inh (PKA)” value: 17.08% for the first, 52.51% for the second.

First: CCOC(=O)[C@H](CCc1ccccc1)N[C@H]1CS[C@H](c2cccs2)CN(CC(=O)O)C1=O [UM0142447:01, Temocapril HCl]
Second: CC(C)C[C@@H](C(=O)N[C@H](C(=O)OC1CCCC1)c1ccccc1)[C@H](O)C(=O)NO [UM0141805:01, Tosedostat (CHR2797)]
The “Inh (PKA)” value of the first is lower: 1.04% for the first, 5.594% for the second.

First: COc1ccc(/C=C(\C#N)c2cccnc2)cc1OC [UM0142745:01, RG 13022]
Second: N#Cc1ccc(Oc2ccc3c(c2)COB3O)cc1 [UM0141516:01, AN-2728]
The “Inh (PKA)” value of the first is higher: 13.99% for the first, 2.062% for the second.

Compared with CCCCCOC(=O)Nc1nc(=O)n([C@@H]2O[C@H](C)[C@@H](O)[C@H]2O)cc1F [UM0142109:01, Capecitabine], C[C@@H](O)[C@H]1C(=O)N2C(C(=O)[O-])=C(SC3Cn4cnc[n+]4C3)[C@H](C)[C@H]12 (some centres unmarked) [UM0141395:01, Biapenem] is lower in “Inh (PKA)” value: 3.507% for the first, 2.946% for the second.

Going from COc1c(C)cnc(Cn2cnc3c(Cl)nc(N)nc32)c1C [UM0141685:01, BIIB021] to COc1ccc(CNc2nc(N(CCO)CCO)nc3c2ncn3C(C)C)cc1 [UM0127838:02, CVT-313], the “Inh (PKA)” value rises from 2.432% to 6.845%.

First: N#CC(c1ccnc(NCCc2cccnc2)n1)c1nc2ccccc2s1 (centres unmarked) [UM0142696:01, AS601245]
Second: Nc1[nH]nc2nnc(-c3c(-c4ccccc4)nn4ccccc34)cc12 [UM0127848:03, FR 180204]
The “Inh (PKA)” value of the first is higher: 54.87% for the first, 1.354% for the second.

Going from COc1ccc(-c2nc3cc(C4=NNC(=O)CC4C)ccc3[nH]2)cc1 (centres unmarked) [UM0141796:01, Pimobendan] to NC(=O)c1ccc(-c2nc(-c3ccc4c(c3)OCCO4)c(-c3ccccn3)[nH]2)cc1 [UM0127827:02, D4476], the “Inh (PKA)” value rises from 10.77% to 37.52%.

Going from CCCCCCCCCCCCCCCCn1cc[n+](Cc2ccccc2)c1C [UM0142140:01, NH125] to O=C(O)c1ccccc1O [UM0038620:02, Salicylic acid], the “Inh (PKA)” value falls from 8.181% to 0.4961%.

First: CCN1CCN(c2ccc(Nc3cc(N(C)C(=O)Nc4c(Cl)c(OC)cc(OC)c4Cl)ncn3)cc2)CC1 [UM0141502:01, BGJ398]
Second: COc1cc2c(NC3CCN(C(C)C)CC3)nc(C3CCCCC3)nc2cc1OCCCN1CCCC1 [UM0128581:02, UNC0638]
The “Inh (PKA)” value of the first is lower: -0.1399% for the first, 0.9337% for the second.

First: CC(=O)Oc1cc(C(F)(F)F)ccc1C(=O)O [UM0118728:03, Triflusal]
Second: O=C(O)c1ccnc(C(=O)O)c1 [UM0128207:03, 2,4-Pyridinedicarboxylic Acid]
The “Inh (PKA)” value of the first is higher: 6.12% for the first, 1.396% for the second.

First: CC(C)(O)c1coc(S(=O)(=O)NC(=O)Nc2c3c(cc4c2CCC4)CCC3)c1 [UM0142816:01, MCC950 sodium]
Second: Cc1ccc(NC(=O)Nc2cc(C(F)(F)F)ccc2F)cc1Nc1ccc2c(c1)NC(=O)/C2=C\c1ccc[nH]1 [UM0141977:01, GNF-5837]
The “Inh (PKA)” value of the first is lower: -1.906% for the first, 11.58% for the second.

Compared with COC(=O)CC(NC(=O)OC(C)(C)C)C(=O)CF [UM0141423:01, Boc-D-FMK], COc1cc2c(NC3CCN(CC4CCCCC4)CC3)nc(N3CCCN(C(C)C)CC3)nc2cc1OCCCN1CCCCC1 [UM0142178:01, UNC 0631] is lower in “Inh (PKA)” value: 1.796% for the first, 0.9058% for the second.

In the case of O=C1NCCSc2c1sc1ccc(O)cc21 [UM0141570:01, kb NB 142-70], the “Inh (PKA)” value is reported as 9.964%.
